Data taken from patent publication US10130674B2, “Modified peptide that reduces pain in peripheral neuropathy” (Creative Bio-Peptides, priority 2010, dated 2018).

How the values were obtained:
[1] = data not shown
[2] = data not shown; remark: listed apart in the source
[3] = system: CCR5-specific virus (HIVBaL); assay: In vitro CCR5 receptor viral infectivity assay (GHOST R5 reporter cells); format: cell-based, HIV; conditions: GFP reporter
Experimental: This virus uses CCR5 receptor binding to infect its host cell.
In Vitro CCR5 Receptor Viral Infectivity Assay
A CCR5-specific virus (HIVBaL) was added 1 hr later. CCR5 receptor viral infectivity was tested on CCR5-containing cells with a Green Fluorescent Protein (GFP) reporter that responds to viral infection.
The experiment, which was repeated 5 times in various cell systems, was performed in triplicate and bars correspond to standard error of the mean. Data were analyzed by a nonlinear fit using GraphPad Prism 5.

CCR5 = CCR5 (Homo sapiens, UniProt P51681); conditions: cited from earlier work
Chain of CCR5 (P51681 whole entry): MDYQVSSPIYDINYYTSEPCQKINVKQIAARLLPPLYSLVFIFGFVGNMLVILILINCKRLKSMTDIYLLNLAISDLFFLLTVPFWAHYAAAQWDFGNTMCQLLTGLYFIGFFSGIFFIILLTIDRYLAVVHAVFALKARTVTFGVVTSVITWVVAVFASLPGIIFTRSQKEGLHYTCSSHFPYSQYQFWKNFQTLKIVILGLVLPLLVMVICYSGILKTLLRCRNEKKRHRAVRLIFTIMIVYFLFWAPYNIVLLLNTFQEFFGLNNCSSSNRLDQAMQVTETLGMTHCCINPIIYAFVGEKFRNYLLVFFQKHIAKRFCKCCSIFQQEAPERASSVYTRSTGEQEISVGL

[4] = Nerve damage neuropathic pain, DAPTA pilot study; format: in vivo, rat

Row | Molecule | paw withdrawal latency in naïve animals [1] | paw withdrawal threshold in naïve animals [2] | block of infection by CCR5 using virus (HIVBaL) [3] | affinity for R5 (CCR5) | neuropathic pain development ([4]; pilot study, 0.01 mg/kg, not shown) | pain in the paw ipsilateral to nerve damage ([4]; rats)
1 | C[C@H](O)[C@@H](N)C(=O)N[C@@H](C(=O)N[C@H](CC(N)=O)C(=O)N[C@H](Cc1ccc(O)cc1)C(=O)N[C@@H](C(=O)O)[C@H](C)O)[C@H](C)O [All D TTNYT] | did not alter | did not alter | – | – | – | –
2 | D-Ala-Peptide T-amide [DAPTA] | – | – | block CCR5 receptors | femtomolar range | inhibited neuropathic pain development | attenuated pain
